# Measurements: PubChem BioAssay AID256 (DTP/NCI, 2004)
# Where “and” joins values, the source holds several entries; their conditions need not be identical. Identical values can stand only once. Toxic doses and inconclusive results are not listed.
# Test system: CD2F1 mice, L1210 leukemia ip, survival T/C
# Experiment: NCI In Vivo Anticancer Drug Screen. Data for tumor model L1210 Leukemia (intraperitoneal) in CD2F1 (CDF1) mice
# Settings: higher = longer survival
# In short: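 Implant tumor; dose compound or vehicle; measure endpoint in both groups; report treated divided by control.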
# [1] = endpoint: mean survival time, dose: 100.0 mg/kg/injection, schedule: Q01DX009 (ip), vehicle: saline with Tween-80
# [2] = endpoint: mean survival time, dose: 200.0 mg/kg/injection, schedule: Q01DX009 (ip), vehicle: saline with Tween-80
# [3] = endpoint: mean survival time, dose: 400.0 mg/kg/injection, schedule: Q01DX009 (ip), vehicle: saline with Tween-80
# [4] = endpoint: mean survival time, dose: 25.0 mg/kg/injection, schedule: Q04DX003 (ip), vehicle: saline with Tween-80
# [5] = endpoint: mean survival time, dose: 50.0 mg/kg/injection, schedule: Q01DX009 (ip), vehicle: saline with Tween-80
# [6] = endpoint: mean survival time, dose: 100.0 mg/kg/injection, schedule: Q04DX003 (ip), vehicle: saline with Tween-80
# [7] = endpoint: mean survival time, dose: 200.0 mg/kg/injection, schedule: Q04DX003 (ip), vehicle: saline with Tween-80
# [8] = endpoint: mean survival time, dose: 100.0 mg/kg/injection, schedule: Q01DX001 (ip), vehicle: saline with Tween-80
# [9] = endpoint: mean survival time, dose: 200.0 mg/kg/injection, schedule: Q01DX001 (ip), vehicle: saline with Tween-80
# [10] = endpoint: mean survival time, dose: 400.0 mg/kg/injection, schedule: Q01DX001 (ip), vehicle: saline with Tween-80
# [11] = endpoint: mean survival time, dose: 400.0 mg/kg/injection, schedule: Q04DX003 (ip), vehicle: saline with Tween-80
compound,measurement,setting,value
OCC1C(CO)C2CC1C1N=NN(c3ccccc3)C21 (stereo not drawn),T/C,"endpoint: mean survival time, dose: 100.0 mg/kg/injection, schedule: Q01DX001 (ip), vehicle: saline sonified",102 % of control
same,T/C,"endpoint: mean survival time, dose: 200.0 mg/kg/injection, schedule: Q01DX001 (ip), vehicle: saline sonified",100 % of control
same,T/C,"endpoint: mean survival time, dose: 400.0 mg/kg/injection, schedule: Q01DX001 (ip), vehicle: saline sonified",100 % of control
CC(C)CCCC(C)C1CCC2C3C(O)C=C4CC(OC(=O)CCC(C)C)CCC4(C)C3CCC12C (stereo not drawn),T/C,[1],94 % of control
same,T/C,[2],91 % of control
same,T/C,[3],100 % of control
CNN=C1CCCC1,T/C,"endpoint: mean survival time, dose: 12.5 mg/kg/injection, schedule: Q01DX009 (ip), vehicle: saline",97 % of control
same,T/C,"endpoint: mean survival time, dose: 25.0 mg/kg/injection, schedule: Q01DX009 (ip), vehicle: saline",102 % of control
CC1(C)N=C(N)N=C(N)N1c1ccc(Cl)c(C(F)(F)F)c1,T/C,[4],109 % of control
same,T/C,"endpoint: mean survival time, dose: 50.0 mg/kg/injection, schedule: Q04DX003 (ip), vehicle: saline with Tween-80",124 % of control
O=C(c1ccccc1)c1cc2ccccc2o1,T/C,"endpoint: mean survival time, dose: 50.0 mg/kg/injection, schedule: Q01DX009 (ip), vehicle: saline + alcohol",102 % of control
same,T/C,"endpoint: mean survival time, dose: 100.0 mg/kg/injection, schedule: Q01DX009 (ip), vehicle: saline + alcohol",105 % of control
same,T/C,"endpoint: mean survival time, dose: 200.0 mg/kg/injection, schedule: Q01DX009 (ip), vehicle: saline + alcohol",93 % of control
O.[Cl][Pt].[S-]CCN1CCOCC1,T/C,"endpoint: mean survival time, dose: 12.5 mg/kg/injection, schedule: Q04DX003 (ip), vehicle: distilled water + Tween-80",96 % of control
same,T/C,"endpoint: mean survival time, dose: 25.0 mg/kg/injection, schedule: Q04DX003 (ip), vehicle: distilled water + Tween-80",98 % of control
same,T/C,"endpoint: mean survival time, dose: 50.0 mg/kg/injection, schedule: Q04DX003 (ip), vehicle: distilled water + Tween-80",102 % of control
same,T/C,"endpoint: mean survival time, dose: 100.0 mg/kg/injection, schedule: Q04DX003 (ip), vehicle: distilled water + Tween-80",98 % of control
same,T/C,"endpoint: mean survival time, dose: 200.0 mg/kg/injection, schedule: Q04DX003 (ip), vehicle: distilled water + Tween-80",96 % of control
NNC(=O)c1cc(NN)ccn1,T/C,[5],102 % of control
same,T/C,[1],100 % of control
same,T/C,[6],100 % of control
same,T/C,[7],98 % of control
O=C1CCc2ccccc2C1C(=O)CC(O)(c1ccccc1)c1ccccc1 (stereo not drawn),T/C,[6],100 % of control
same,T/C,[7],102 % of control
CC(O)C[As](=O)(O)c1ccc(Cl)cc1 (stereo not drawn),T/C,"endpoint: mean survival time, dose: 6.25 mg/kg/injection, schedule: Q04DX003 (ip), vehicle: saline with Tween-80",95 % of control
same,T/C,"endpoint: mean survival time, dose: 12.5 mg/kg/injection, schedule: Q04DX003 (ip), vehicle: saline with Tween-80",107 % of control
same,T/C,[4],107 % of control
Cc1cc(C)c(C(=O)CCCC(=O)O)c(C)c1,T/C,[6],94 % of control
same,T/C,[7],92 % of control
CC1(C)CC(=O)NC1=O,T/C,"endpoint: mean survival time, dose: 100.0 mg/kg/injection, schedule: Q01DX009 (ip), vehicle: saline",100 % of control
same,T/C,"endpoint: mean survival time, dose: 200.0 mg/kg/injection, schedule: Q01DX009 (ip), vehicle: saline",102 % of control
same,T/C,"endpoint: mean survival time, dose: 400.0 mg/kg/injection, schedule: Q01DX009 (ip), vehicle: saline",94 % of control
CCOC(=O)c1sc(C(=O)OCC)c(-c2ccccc2)c1-c1ccccc1,T/C,[8],108 % of control
same,T/C,[9],93 % of control
same,T/C,[10],96 % of control
NNc1ncnc2c(C3OC(CO)C(O)C3O)[nH]nc12 (stereo not drawn),T/C,"endpoint: mean survival time, dose: 150.0 mg/kg/injection, schedule: Q01DX009 (ip), vehicle: saline sonified",155 % of control
OCCN=Cc1ccc(OCc2ccccc2)c(OCc2ccccc2)c1,T/C,"endpoint: median survival time, dose: 50.0 mg/kg/injection, schedule: Q04DX002 (ip), vehicle: saline with Tween-80",100 % of control
same,T/C,"endpoint: median survival time, dose: 100.0 mg/kg/injection, schedule: Q04DX002 (ip), vehicle: saline with Tween-80",111 % of control
same,T/C,"endpoint: median survival time, dose: 200.0 mg/kg/injection, schedule: Q04DX002 (ip), vehicle: saline with Tween-80",88 % of control
same,T/C,"endpoint: median survival time, dose: 400.0 mg/kg/injection, schedule: Q04DX002 (ip), vehicle: saline with Tween-80",100 % of control
Clc1ccccc1/C=C1\c2ccccc2-c2nc3ccccc3nc21,T/C,[6],109 % of control
same,T/C,[7],103 % of control
same,T/C,[11],97 % of control
Cc1nc(=O)cnn1C1OC(CO)C(O)C1O (stereo not drawn),T/C,"endpoint: mean survival time, dose: 12.5 mg/kg/injection, schedule: Q01DX005 (ip), vehicle: distilled water + Tween-80",102 % of control
same,T/C,"endpoint: mean survival time, dose: 25.0 mg/kg/injection, schedule: Q01DX005 (ip), vehicle: distilled water + Tween-80",102 % of control
same,T/C,"endpoint: mean survival time, dose: 50.0 mg/kg/injection, schedule: Q01DX005 (ip), vehicle: distilled water + Tween-80",97 % of control
same,T/C,"endpoint: mean survival time, dose: 100.0 mg/kg/injection, schedule: Q01DX005 (ip), vehicle: distilled water + Tween-80",103 % of control
same,T/C,"endpoint: mean survival time, dose: 200.0 mg/kg/injection, schedule: Q01DX005 (ip), vehicle: distilled water + Tween-80",105 % of control
Cc1ccc(S(=O)(=O)NNC(=O)C2(C)CC2(C)C(=O)O)cc1 (stereo not drawn),T/C,[1],96 % of control
same,T/C,[2],96 % of control
same,T/C,[3],100 % of control
COc1ccc(C2OC2C(=O)O)cc1OC (stereo not drawn),T/C,[6],98 % of control
same,T/C,[7],86 % of control
same,T/C,[11],96 % of control
c1ccc2c(c1)Cc1c-2nc2ccccc2c1N1CCOCC1,T/C,[8],94 % of control
same,T/C,[1],97 % of control
same,T/C,[9],100 % of control
same,T/C,[2],106 % of control
same,T/C,[10],92 % of control
CCOC(=O)C1C(=O)NCC1c1ccccc1 (stereo not drawn),T/C,[5],106 % of control
same,T/C,[1],101 % of control
same,T/C,[2],101 % of control
O=C(O)CC(CC(=O)O)C(=O)O.[NH-]C1CCCCC1[NH-].[Pt+2],T/C,"endpoint: median survival time, dose: 3.12 mg/kg/injection, schedule: Q04DX003 (ip), vehicle: Klucel (hydroxypropylcellulose) (HPC)",112 % of control
same,T/C,"endpoint: median survival time, dose: 3.12 mg/kg/injection, schedule: Q04DX003 (ip), vehicle: saline",106 % of control
same,T/C,"endpoint: median survival time, dose: 6.25 mg/kg/injection, schedule: Q04DX003 (ip), vehicle: Klucel (hydroxypropylcellulose) (HPC)",112 % of control
same,T/C,"endpoint: median survival time, dose: 6.25 mg/kg/injection, schedule: Q04DX003 (ip), vehicle: saline",106 % of control
same,T/C,"endpoint: median survival time, dose: 12.5 mg/kg/injection, schedule: Q04DX003 (ip), vehicle: Klucel (hydroxypropylcellulose) (HPC)",122 % of control
same,T/C,"endpoint: median survival time, dose: 12.5 mg/kg/injection, schedule: Q04DX003 (ip), vehicle: saline",101 % of control and 109 % of control
same,T/C,"endpoint: median survival time, dose: 25.0 mg/kg/injection, schedule: Q04DX003 (ip), vehicle: Klucel (hydroxypropylcellulose) (HPC)",101 % of control
same,T/C,"endpoint: median survival time, dose: 25.0 mg/kg/injection, schedule: Q04DX003 (ip), vehicle: saline",118 % of control and 107 % of control
same,T/C,"endpoint: median survival time, dose: 50.0 mg/kg/injection, schedule: Q04DX003 (ip), vehicle: Klucel (hydroxypropylcellulose) (HPC)",103 % of control
same,T/C,"endpoint: median survival time, dose: 50.0 mg/kg/injection, schedule: Q04DX003 (ip), vehicle: saline",109 % of control
same,T/C,"endpoint: median survival time, dose: 100.0 mg/kg/injection, schedule: Q04DX003 (ip), vehicle: Klucel (hydroxypropylcellulose) (HPC)",109 % of control
same,T/C,"endpoint: median survival time, dose: 100.0 mg/kg/injection, schedule: Q04DX003 (ip), vehicle: saline",120 % of control and 110 % of control
same,T/C,"endpoint: median survival time, dose: 200.0 mg/kg/injection, schedule: Q04DX003 (ip), vehicle: Klucel (hydroxypropylcellulose) (HPC)",116 % of control
same,T/C,"endpoint: median survival time, dose: 200.0 mg/kg/injection, schedule: Q04DX003 (ip), vehicle: saline",113 % of control
CCCCCC(C[N+](C)(C)C)C(=O)/C=C/c1ccc(Cl)cc1 (stereo not drawn),T/C,"endpoint: mean survival time, dose: 12.0 mg/kg/injection, schedule: Q01DX009 (ip), vehicle: Klucel (hydroxypropylcellulose) (HPC)",96 % of control
same,T/C,"endpoint: mean survival time, dose: 25.0 mg/kg/injection, schedule: Q01DX009 (ip), vehicle: Klucel (hydroxypropylcellulose) (HPC)",96 % of control
same,T/C,"endpoint: mean survival time, dose: 50.0 mg/kg/injection, schedule: Q01DX009 (ip), vehicle: Klucel (hydroxypropylcellulose) (HPC)",96 % of control
CCOC(=O)Nc1ccc(S(=O)(=O)O)cc1,T/C,"endpoint: mean survival time, dose: 100.0 mg/kg/injection, schedule: Q01DX001 (ip), vehicle: saline",94 % of control
same,T/C,"endpoint: mean survival time, dose: 200.0 mg/kg/injection, schedule: Q01DX001 (ip), vehicle: saline",105 % of control
same,T/C,"endpoint: mean survival time, dose: 400.0 mg/kg/injection, schedule: Q01DX001 (ip), vehicle: saline",98 % of control
Cc1ccc2c(c1)C(=NCCCN=C1C(=O)Nc3ccc(C)cc31)C(=O)N2,T/C,[8],103 % of control
same,T/C,[9],95 % of control
same,T/C,[10],98 % of control
c1ccc(NC(Nc2ccccn2)c2ccncc2)nc1,T/C,"endpoint: mean survival time, dose: 54.25 mg/kg/injection, schedule: Q04DX003 (ip), vehicle: saline with Tween-80",97 % of control
same,T/C,[6],102 % of control
same,T/C,"endpoint: mean survival time, dose: 108.5 mg/kg/injection, schedule: Q04DX003 (ip), vehicle: saline with Tween-80",103 % of control
same,T/C,[7],108 % of control
same,T/C,"endpoint: mean survival time, dose: 217.0 mg/kg/injection, schedule: Q04DX003 (ip), vehicle: saline with Tween-80",102 % of control
same,T/C,[11],110 % of control
same,T/C,"endpoint: mean survival time, dose: 434.0 mg/kg/injection, schedule: Q04DX003 (ip), vehicle: saline with Tween-80",100 % of control
same,T/C,"endpoint: mean survival time, dose: 600.0 mg/kg/injection, schedule: Q04DX003 (ip), vehicle: saline with Tween-80",113 % of control
